According to patent US20210254272A1, “TEXTILES HAVING ANTIMICROBIAL PROPERTIES” (Livinguard AG, priority 2015, published 2021):

Test system: E. coli (ATCC 25922)
Experiment: AATCC Test Method 100-2012 antibacterial activity of the treated textile, after 25 washes and 12 abrasion cycles, contact time 60 minutes
Format: cell-based
Conditions: for Performance Test-Log reduction of antimicrobial performance: pad process, 2 min
Protocol: The antibacterial activity of the textile was tested in accordance with AATCC Test Method 100-2012. Prior to the test, the fabric was cut into coupons of 2×4 inches and washed separately 25 times, and exposed to 12 abrasion cycles, as per US EPA protocol 90072PA4 (described further below). The tests were made against E. coli (ATCC 25922). Contact time was 60 minutes, after inoculating with 10^8 CFU per coupon.

Silver
Performance Test-Log reduction of antimicrobial performance (single agent 5 gm/lit, curing 180° C.): 1.11 Log
Performance Test-Log reduction of antimicrobial performance (single agent 10 gm/lit, curing 120° C.): 0.37 Log
Performance Test-Log reduction of antimicrobial performance (single agent 10 gm/lit, curing 140° C.): 0.48 Log
Performance Test-Log reduction of antimicrobial performance (single agent 10 gm/lit, curing 150° C.): 0.58 Log
Performance Test-Log reduction of antimicrobial performance (single agent 10 gm/lit, curing 160° C.): 0.95 Log
Performance Test-Log reduction of antimicrobial performance (single agent 10 gm/lit, curing 180° C.): 2.11 Log
Log reduction of antimicrobial performance (pure cotton fabric, exhaust 80° C., 60 min, dosage 0.1% o.w.f): 0.55 Log
Log reduction of antimicrobial performance (pure cotton fabric, exhaust 80° C., 60 min, dosage 0.2% o.w.f): 1.35 Log
Log reduction of antimicrobial performance (pure cotton fabric, exhaust 80° C., 60 min, dosage 0.5% o.w.f): 1.67 Log
Log reduction of antimicrobial performance (pure cotton fabric, exhaust 80° C., 60 min, dosage 0.8% o.w.f): 1.84 Log
Log reduction of antimicrobial performance (pure cotton fabric, exhaust 80° C., 60 min, dosage 1.0% o.w.f): 2.87 Log
Log reduction of antimicrobial performance (pure cotton, exhaust 80° C., 1% o.w.f, 60 min, curing 180° C., curing dwell time 0.5 min): 0.4 Log
Log reduction of antimicrobial performance (pure cotton, exhaust 80° C., 1% o.w.f, 60 min, curing 180° C., curing dwell time 1.0 min): 0.6 Log
Log reduction of antimicrobial performance (pure cotton, exhaust 80° C., 1% o.w.f, 60 min, curing 180° C., curing dwell time 1.5 min): 1.4 Log
Log reduction of antimicrobial performance (pure cotton, exhaust 80° C., 1% o.w.f, 60 min, curing 180° C., curing dwell time 2.0 min): 2.9 Log
Log reduction of antimicrobial performance (pure cotton, exhaust 80° C., 1% o.w.f, 60 min, curing 180° C., curing dwell time 2.5 min): 2.2 Log
Log reduction of antimicrobial performance (pure cotton, exhaust 80° C., 1% o.w.f, 60 min, curing 180° C., curing dwell time 3.0 min): 1.2 Log
Log reduction of antimicrobial performance (pure polyester fabric, exhaust 80° C., 60 min, curing 180° C., curing dwell time 0.5 min): 0.5 Log
Log reduction of antimicrobial performance (pure polyester fabric, exhaust 80° C., 60 min, curing 180° C., curing dwell time 1.0 min): 0.9 Log
Log reduction of antimicrobial performance (pure polyester fabric, exhaust 80° C., 60 min, curing 180° C., curing dwell time 1.5 min): 1.4 Log
Log reduction of antimicrobial performance (pure polyester fabric, exhaust 80° C., 60 min, curing 180° C., curing dwell time 2.0 min): 2.68 Log
Log reduction of antimicrobial performance (pure polyester fabric, exhaust 80° C., 60 min, curing 180° C., curing dwell time 2.5 min): 2.21 Log
Log reduction of antimicrobial performance (pure polyester fabric, exhaust 80° C., 60 min, curing 180° C., curing dwell time 3.0 min): 1.2 Log
Log reduction of antimicrobial performance (pure polyester fabric, exhaust 80° C., 60 min, dosage 0.1% o.w.f): 0.55 Log
Log reduction of antimicrobial performance (pure polyester fabric, exhaust 80° C., 60 min, dosage 0.2% o.w.f): 1.43 Log
Log reduction of antimicrobial performance (pure polyester fabric, exhaust 80° C., 60 min, dosage 0.5% o.w.f): 1.78 Log
Log reduction of antimicrobial performance (pure polyester fabric, exhaust 80° C., 60 min, dosage 0.8% o.w.f): 1.83 Log
Log reduction of antimicrobial performance (pure polyester fabric, exhaust 80° C., 60 min, dosage 1.0% o.w.f): 2.67 Log
Log reduction of antimicrobial performance (solution dosage 0.10% o.w.f, exhaust temperature 40° C., process time 60 min): 0 Log
Log reduction of antimicrobial performance (solution dosage 0.10% o.w.f, exhaust temperature 60° C., process time 60 min): 0 Log
Log reduction of antimicrobial performance (solution dosage 0.10% o.w.f, exhaust temperature 65° C., process time 60 min): 0 Log
Log reduction of antimicrobial performance (solution dosage 0.10% o.w.f, exhaust temperature 70° C., process time 60 min): 0 Log
Log reduction of antimicrobial performance (solution dosage 0.10% o.w.f, exhaust temperature 75° C., process time 60 min): 0.21 Log
Log reduction of antimicrobial performance (solution dosage 0.10% o.w.f, exhaust temperature 80° C., process time 60 min): 0.53 Log
Log reduction of antimicrobial performance (solution dosage 0.10% o.w.f, exhaust temperature 85° C., process time 60 min): 0.67 Log
Log reduction of antimicrobial performance (solution dosage 0.10% o.w.f, exhaust temperature 90° C., process time 60 min): 0.68 Log
Log reduction of antimicrobial performance (solution dosage 0.10% o.w.f, exhaust temperature 95° C., process time 60 min): 0.68 Log
Log reduction of antimicrobial performance (solution dosage 0.20% o.w.f, exhaust temperature 40° C., process time 60 min): 0 Log
Log reduction of antimicrobial performance (solution dosage 0.20% o.w.f, exhaust temperature 60° C., process time 60 min): 0.11 Log
Log reduction of antimicrobial performance (solution dosage 0.20% o.w.f, exhaust temperature 65° C., process time 60 min): 0.12 Log
Log reduction of antimicrobial performance (solution dosage 0.20% o.w.f, exhaust temperature 70° C., process time 60 min): 0.17 Log
Log reduction of antimicrobial performance (solution dosage 0.20% o.w.f, exhaust temperature 75° C., process time 60 min): 0.87 Log
Log reduction of antimicrobial performance (solution dosage 0.20% o.w.f, exhaust temperature 80° C., process time 60 min): 1.32 Log
Log reduction of antimicrobial performance (solution dosage 0.20% o.w.f, exhaust temperature 85° C., process time 60 min): 1.45 Log
Log reduction of antimicrobial performance (solution dosage 0.20% o.w.f, exhaust temperature 90° C., process time 60 min): 1.46 Log
Log reduction of antimicrobial performance (solution dosage 0.20% o.w.f, exhaust temperature 95° C., process time 60 min): 1.46 Log
Log reduction of antimicrobial performance (solution dosage 0.50% o.w.f, exhaust temperature 40° C., process time 60 min): 0 Log
Log reduction of antimicrobial performance (solution dosage 0.50% o.w.f, exhaust temperature 60° C., process time 60 min): 0.23 Log
Log reduction of antimicrobial performance (solution dosage 0.50% o.w.f, exhaust temperature 65° C., process time 60 min): 0.13 Log
Log reduction of antimicrobial performance (solution dosage 0.50% o.w.f, exhaust temperature 70° C., process time 60 min): 0.18 Log
Log reduction of antimicrobial performance (solution dosage 0.50% o.w.f, exhaust temperature 75° C., process time 60 min): 1.05 Log
Log reduction of antimicrobial performance (solution dosage 0.50% o.w.f, exhaust temperature 80° C., process time 60 min): 1.56 Log
Log reduction of antimicrobial performance (solution dosage 0.50% o.w.f, exhaust temperature 85° C., process time 60 min): 1.76 Log
Log reduction of antimicrobial performance (solution dosage 0.50% o.w.f, exhaust temperature 90° C., process time 60 min): 1.78 Log
Log reduction of antimicrobial performance (solution dosage 0.50% o.w.f, exhaust temperature 95° C., process time 60 min): 1.78 Log
Log reduction of antimicrobial performance (solution dosage 0.80% o.w.f, exhaust temperature 40° C., process time 60 min): 0 Log
Log reduction of antimicrobial performance (solution dosage 0.80% o.w.f, exhaust temperature 60° C., process time 60 min): 0.36 Log
Log reduction of antimicrobial performance (solution dosage 0.80% o.w.f, exhaust temperature 65° C., process time 60 min): 0.37 Log
Log reduction of antimicrobial performance (solution dosage 0.80% o.w.f, exhaust temperature 70° C., process time 60 min): 0.42 Log
Log reduction of antimicrobial performance (solution dosage 0.80% o.w.f, exhaust temperature 75° C., process time 60 min): 1.13 Log
Log reduction of antimicrobial performance (solution dosage 0.80% o.w.f, exhaust temperature 80° C., process time 60 min): 1.84 Log
Log reduction of antimicrobial performance (solution dosage 0.80% o.w.f, exhaust temperature 85° C., process time 60 min): 1.94 Log
Log reduction of antimicrobial performance (solution dosage 0.80% o.w.f, exhaust temperature 90° C., process time 60 min): 1.95 Log
Log reduction of antimicrobial performance (solution dosage 0.80% o.w.f, exhaust temperature 95° C., process time 60 min): 1.95 Log
Log reduction of antimicrobial performance (solution dosage 1.00% o.w.f, exhaust temperature 40° C., process time 60 min): 0 Log
Log reduction of antimicrobial performance (solution dosage 1.00% o.w.f, exhaust temperature 60° C., process time 60 min): 0.41 Log
Log reduction of antimicrobial performance (solution dosage 1.00% o.w.f, exhaust temperature 65° C., process time 60 min): 0.42 Log
Log reduction of antimicrobial performance (solution dosage 1.00% o.w.f, exhaust temperature 70° C., process time 60 min): 0.52 Log
Log reduction of antimicrobial performance (solution dosage 1.00% o.w.f, exhaust temperature 75° C., process time 60 min): 1.23 Log
Log reduction of antimicrobial performance (solution dosage 1.00% o.w.f, exhaust temperature 80° C., process time 60 min): 2.78 Log
Log reduction of antimicrobial performance (solution dosage 1.00% o.w.f, exhaust temperature 85° C., process time 60 min): 2.85 Log
Log reduction of antimicrobial performance (solution dosage 1.00% o.w.f, exhaust temperature 90° C., process time 60 min): 2.86 Log
Log reduction of antimicrobial performance (solution dosage 1.00% o.w.f, exhaust temperature 95° C., process time 60 min): 2.86 Log
